Molecules are shown by their SMILES.

Data on two molecules can be found in patent EP4574151A1, “INHIBITORS OF G12V-MUTATED RAS PROTEIN TO TREAT CANCER” (Personather Spolka Z Ograniczona Odpowiedzialnoscia, priority 2023, dated 2025).

Data set [1] deals with SW620 cells (with RASG12V mutation). The data set is described as follows: Crystal violet cytotoxicity test (IC50) in KRASG12V positive cells. It is filed as cell-based. The settings on record: summary statement. From the text:
IC50 (half-maximal inhibitory concentration) is the concentration value of a tested compound which inhibits biochemical and biological functions of cells in half of the tested population. Determining this indicator is extremely important for assessing the cytotoxicity of molecules with therapeutic potential.
The first step in developing the methodology for determining IC50 was to conduct density tests to determine the appropriate number of cells to use in cytotoxicity tests. The different content of bovine fetal serum in the culture medium was also investigated to rule out any potential impact on the reduction in cell count, regardless of the analyzed molecules.
(§1) As a research model, colon cancer and lung cancer cell lines (sensitive lines) were used, including SW620, SW480, and COR-L23, respectively, which are characterized by the KRASG12V gene mutation and lack of other alterations in genes belonging to the RAS protein signaling pathway, as well as a stable line of normal cells (mouse fibroblasts), which serve as a platform for evaluating the impact of tested compounds on non-cancer cells. Below is the result for one of the analyzed cell lines with the mutation. Similar differences in IC50 values compared to normal cells were obtained for the other cell lines mentioned above with the RASG12V mutation.
(§2) The effect of molecules on the biology of selected cell lines to assess their cytotoxicity using the IC50 indicator was carried out according to the protocol below: • 1. The cells of the tested lines were seeded in wells of a 96-well plate at specified densities. • 2. After seeding, the cells were subjected to a 24-hour incubation in medium with a 1% and 2.5% addition of serum (sensitive lines) or in medium with a 0.5% addition of serum (normal line). • 3. The cells were exposed to selected molecules at selected concentrations. The control was provided by the culture medium without any added compounds. Concentrations of the tested molecules [uM]: • □ NIH3T3: 500; 250; 125; 62,5; 31,25 • □ SW620: 60; 30; 15; 7,5; 3,75 • 4. After 72 hours of incubation, the culture medium was removed and the cells were washed twice with buffer saline solution (PBS). Then, the cells were incubated for 10 minutes with a 0.1% solution of crystal violet at room temperature (Merck Millipore). • 5. After 10 minutes, the crystal violet solution was removed and the wells of the 96-well plate were washed twice with PBS solution. • 4. 50% ice-cold acetic acid solution was added to each well and incubated again for 10 minutes at room temperature on a shaker at 650 rpm. • 5. Absorbance measurement was performed using a plate reader, at a wavelength of λ = 540 nm

Another data set deals with BALB/c mice. The data set can be described thus: Acute toxicity after oral administration (Acute Toxicity test TG425). The settings on record: female BALB/c mice, oral by gastric probe, 40 mg of substance in corn oil, three mice, observed two weeks. The class given is in vivo. The source says: The study was planned according to Acute Toxicity Test 425 (oral administration) - higher-lower-dose procedure, in accordance with the OECD regulation of October 3, 2008. The test procedure described in these guidelines is useful in minimizing the number of animals needed to estimate the acute toxicity after oral administration of potential drugs. In addition to the LD50 assessment and confidence intervals, the test allows for the observation of signs of toxicity. For this purpose, an experiment was agreed upon with the Local Ethics Committee for Animal Experimentation, using BALB/c mice. The TG425 method allows for the estimation of LD50 values with confidence intervals, and the results allow for the classification of substances according to the global harmonized system for the classification of chemicals that cause acute toxicity.
A sequential test, utilizing a maximum of 5 animals, was applied, which is known as the limit test. A test dose of either 2000 or uniquely 5000 mg/kg can be used. The testing procedures at 2000 and 5000 mg/kg differ slightly (see Sections 23-25 for the limit test at 2000 mg/kg and Sections 26-30 for the limit test at 5000 mg/kg). The selection of a sequential testing plan increases the statistical power, and a deliberate deviation from the limit test rejection procedure was made for compounds with an LD50 near the limit dose; i.e. committing an error on the side of caution. As with any limit test protocol, the probability of correct compound classification will decrease, as the actual LD50 value more closely resembles the limit dose.
• 1. Female Balb/c mice, which were 50-56 days postpartum, were used for the purposes of this experiment. • 2. Mice underwent a 1-week quarantine after being transported to the laboratory. • 3. The studied molecules (PER154A, PER160A, PER170A, PER176A) were suspended according to the TG425 protocol, i.e. 40 mg of substance in […] of laboratory corn oil and orally administered through a plastic gastro probe (used: 20ga (0.9 mm OD x 0.5 mm ID), 38 mm), which was suitable for the size of the animal (17-21 g). The mice were observed and weighed almost daily. • 4. Mouse housing conditions: up to 4 mice per cage; temperature: 23.2 - 23.40°C; humidity: 27.6 - 40.9% relative humidity. • 5. Two weeks later (time counted separately for each mouse), a resection was performed to analyze internal organs for any abnormalities.

Another data set has as its system NCI-H1975. The data set is described as follows: Toxicity against cancer cells expressing wild type RAS. The class given is cell-based. The settings on record: summary statement. The method, then:
The results of in vitro analyses were presented in the examples. Commercially available cancer cell lines were used for the studies, including SW480, SW620, and COR-L23, showing endogenous expression of KRASG12V, as well as a cell line with exogenously introduced KRASG12V mutation (using methods of genetic engineering) - the DK-MGEGFRvIIIKRASG12V line. Additionally, the cancer cell line NCI- H1975, characterized by the expression of wild type RASWT proteins, was also analyzed.

Data set [2] concerns NIH/3T3 cell line - immortalized mouse fibroblasts. The data set is described as follows: Crystal violet cytotoxicity test in normal cells. The class given is cell-based. The settings on record: summary statement; normal cells NIH/3T3 and PER49.
From the text: To evaluate the toxicity of the tested compound on normal cells, the NIH/3T3 cell line - immortalized mouse fibroblasts and normal pericytes (PER49) were used.
as §1, §2

Turning to `O=C(Nc1ccc(Br)c(Cl)c1)c1ccc2c(c1)C1C3CCC(C3)C1C(c1ccccc1)N2` (centres unmarked) [PER176A], the “toxicity against cancer cells expressing KRASG12V” value in data set [1] is reported as “toxicity”. Further, the “safety in acute oral toxicity test” value with BALB/c mice is “safe for mice”. Moreover, in the data set with NCI-H1975, the “toxicity against cancer cells expressing normal RAS protein” value is recorded as “no toxicity”. Further, in data set [2], the “toxicity against normal cells” value is given as “no toxicity”.

`Cc1ccc(NC(=O)c2ccc3c(c2)C2C4CCC(C4)C2C(c2ccccc2)N3)cc1C` (centres unmarked) [PER170A]: the “toxicity against cancer cells expressing KRASG12V” value in data set [1] was “toxicity”. Moreover, in the data set on BALB/c mice, the “safety in acute oral toxicity test” value is given as “safe for mice”. The “toxicity against cancer cells expressing normal RAS protein” value in the data set on NCI-H1975 is recorded as “no toxicity”. The “toxicity against normal cells” value in data set [2] is recorded as “no toxicity”.
